IC50 and Km data for two molecules are collected here from paper PMC4589404, “Entamoeba histolytica Dmc1 Catalyzes Homologous DNA Pairing and Strand Exchange That Is Stimulated by Calcium and Hop2-Mnd1” (PLoS ONE, 2015).

The target in one series is T1, ehDmc1 (Entamoeba histolytica, UniProt C4LTR6).
T1 construct: gene EHI_050430; 334 amino acid protein with N-terminal six-histidine tag
T1 sequence (C4LTR6 1-347): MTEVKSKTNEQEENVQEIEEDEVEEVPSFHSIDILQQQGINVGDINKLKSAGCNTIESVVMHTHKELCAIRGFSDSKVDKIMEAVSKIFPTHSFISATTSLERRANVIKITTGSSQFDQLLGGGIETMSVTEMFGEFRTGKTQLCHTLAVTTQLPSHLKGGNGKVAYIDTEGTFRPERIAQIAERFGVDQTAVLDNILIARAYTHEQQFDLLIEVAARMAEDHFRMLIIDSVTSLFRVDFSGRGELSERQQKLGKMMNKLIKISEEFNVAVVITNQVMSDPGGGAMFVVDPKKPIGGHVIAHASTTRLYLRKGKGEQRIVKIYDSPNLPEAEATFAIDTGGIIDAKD
Nature of the series: D-loop assay with purified protein (IC50); also ssDNA EMSA, nuclease protection and ATPase assays. In kind it is biochemical.

Substrate in series [1]: Nc1ncnc2c1ncn2[C@@H]1O[C@H](COP(=O)(O)OP(=O)(O)OP(=O)(O)O)[C@@H](O)[C@H]1O
Nature of the series: Michaelis-Menten ATP hydrolysis assay (TLC), purified protein; Km. Format: biochemical, Entamoeba histolytica. To be noted: Mg2+.

The molecule `O=S(=O)(O)c1cc(N=C=S)ccc1C=Cc1ccc(N=C=S)cc1S(=O)(=O)O` [DIDS, 4,4′-diisothiocyanostilbene-2,2′-disulfonic acid] had an IC50 at ehDmc1 of 4.5 ± 0.23 µM.

B1: ehDmc1 (Entamoeba histolytica HM-1:IMSS) (protein)
chain: T1 sequence (C4LTR6 1-347)
notes: 334 amino acid protein with N-terminal six-histidine tag
Regarding B1, the Km in series [1] worked out at 480 ± 50 µM.
